Measurements: patent publication US20120251628A1, “COMPOSITIONS AND METHODS FOR TREATMENT OF CANCER” (priority 2011, published 2012)

Legend:
[1] = system: CT26 (mouse colon cancer); experiment: DCE-MRI of tumor vascularity (Kep) in CT26 tumor mice; assay type: in vivo
Protocol: To determine whether the occurrence of central necrosis of tumors 24 hours after treatment was caused by the reduction of vascularity, DCE-MRI was used before the medication was administered and 24 hours after administration.
Inoculate CT26 (mouse colon cancer) 2×10^6 cell subcutaneously into mice on the upper parts of their thighs.
After checking the tumor size between 6 to 10 mm, acquire images through MRI.
Image Acquisition: Use a magnetic resonance imaging device (i.e., 3 Tesla Intera human clinical scanner; Philips medical systems) and a mouse coil with an inner diameter of 4 cm to get images. Acquire images before the drug is administered and those 24 hours after that for two days.
MR Pulse Sequence as follows: Dynamic Contrast enhanced MRI scan: FOV (mm)=50×35; RFOV (%)=71; Matrix scan=112; reconstruction=224; TR/TE (ms)=12/4.0; slice thickness=1 mm; slice number=11; dynamic scans=60.
i. Conduct an experiment to the subjects under anesthesia by using an inhalation anesthetic mixing 1.5% isoflurane in 100% oxygen at a flow rate of 1 L/min.
ii. Cannulate an intravenous injection line through the tail vein to inject a contrast agent.
iii. Use Gd-DTPA (Magnevist, Schering, Germany, 281 mg/kg) as a contrast agent and get pre-contrast images before injecting the contrast agent and post-contrast images after injecting it.
iv. After getting the images, inject KML001 (10 mg/kg) and Arsenic trioxide (7.5 mg/kg) intraperitoneally.
v. Get images through a dynamic scan again 24 hours after injection.
Accordingly, the groups of animals with which the DCE-MRI data was obtained are as follows: Group of animals treated with ATO: n=4, Group of animals treated with Saline: n=4 and Group of animals treated with KML001: n=6.
As the low data in MRI was mapped from each result of the DCE-MRI to the positive control group of animals treated with ATO, the negative control group of animals treated with saline and the experimental group of animals treated with KML001, Kep values important for tumor vascularity were calculated. Kep (rate constant) is the back diffusion rate constant from interstitial space to vascular space, reflecting leakage of tumor vessels, i.e., a measurement of vascularity.

[2] = system: acute promyelocytic leukemia (APL); settings: patients to which arsenic trioxide was administered; cited from earlier work

Substance: arsenic trioxide [ATO, reference compound]
- Kep values (back diffusion rate constant, tumor vascularity) ([1]; 24 hours after intraperitoneal injection vs pre-treatment, KML001 10 mg/kg, ATO 7.5 mg/kg): significantly reduced
- contrast enhancement of the tumors in the MRI ([1]; 24 hours after treatment): decreased
- patients showing therapeutic effects without acute toxicity [2]: more than 80%
